Read-outs that look alike come from different tables or passages of the source.
Columns and labels:
[1] = target: BCL6 BTB domain (Homo sapiens (Human), UniProt P41182); assay: Surface plasmon resonance (SPR) assay; assay type: binding; conditions: BCL6 BTB domain captured on SA chip, single cycle kinetics
[2] = tested on: BCL6 reporter construct (3xBCL6-TK-Luc) in SuDHL4 cells; assay: Cell-based luciferase assay
Description: Cell-Based Luciferase Assay
A BCL6 reporter construct containing three copies of the consensus BCL6 binding site, the TK promoter, and the firefly luciferase gene was stably expressed in SuDHL4 cells after lentivirus infection and selection with Blasticidin. SuDHL4-3×BCL6-TK-Luc cells were seeded into a Viewplate 384-well assay dish at 15,000 cells/well in 25 ul medium (Alpha-MEM high glucose containing 10% FBS, 25 mM HEPES, […] GlutaMAX, 100 ug/ml Normocin, and […] Gentamycin, Invitrogen). A HP D300 digital dispenser was used to dose cells with DMSO or test compounds across a 10-point range of concentrations (high dose of 10 uM), and cultures were grown in a humidified 5% CO2 incubator at 37° C. After two days, plates were removed from the incubator and equilibrated to room temperature. An equal volume of neolite reporter gene assay reagent was added to each well, and samples were processed according to manufacturer's instructions (Perkin Elmer). Luminescent signal was measured using an Envision plate reader equipped with a US-Luminescence detector.

[3] = tested on: Karpas422 cells; assay: Tumor cell growth inhibition assay; assay type: cell-based
Description: Tumor Cell Growth inhibition Assay
Karpas422 cells were seeded into a 96-well plate at 2,000 cells/well in 150 ul medium (Alpha-MEM containing 10% FBS, […] Normocin, and […] Gentamycin, Invitrogen). A HP D300 digital dispenser was used to dose cells with DMSO or test compounds across a 10-point range of concentrations (high dose of 5 uM), and cultures were grown in a humidified 5% CO2 incubator at 37° C. After six days, plates were removed from incubator and equilibrated to room temperature. An equal volume of ATPlite assay reagent was added to each well, and samples were processed according to manufacturer's instructions (Perkin Elmer). Luminescent signal was measured using an Envision plate reader equipped with a US-Luminescence detector.

[4] = Homo sapiens, SU-DHL-4, 48 h, read-out: Luciferase-Assay EC50, uM), SuDHL4-3xBCL6-TK-Luc cells, two days, high dose 10 uM
[5] = Homo sapiens, KARPAS-422, 144 h, read-out: Tumor Growth Inhibition in Karpas-422 (IC50, uM), Karpas422 cells, six days, ATPlite

Cn1cnc2c(c(-c3cc(Cl)c(O)c(C(N)=O)c3)cn2CC(=O)Nc2cc(N3C[C@H]4CCO[C@H]4C3)ncc2Cl)c1=O [Compound I-74]
Kd [1]: 2 nM | EC50 [2, 4]: 2.3 µM | IC50 [3, 5]: 0.123 µM

Cn1cnc2c(c(-c3cc(Cl)c(O)c(C(N)=O)c3)cn2CC(=O)Nc2cc(N3CCN4CCOCC4C3)ncc2Cl)c1=O (stereo not drawn) [Compound I-75]
Kd [1]: 8 nM | EC50 [2, 4]: 0.132 µM | IC50 [3, 5]: 0.099 µM

Cn1cnc2c(c(-c3cc(Cl)c(O)c(C(N)=O)c3)cn2CC(=O)Nc2cc(N3CCC4(CCOC4)C3)ncc2Cl)c1=O (stereo not drawn) [Compound I-76]
Kd [1]: 12 nM | EC50 [2, 4]: 0.155 µM | IC50 [3, 5]: 0.112 µM

Cn1cnc2c(c(-c3cc(Cl)c(O)c(C(N)=O)c3)cn2CC(=O)Nc2cc(N3CCC4(CCOCC4)CC3)ncc2Cl)c1=O [Compound I-77]
Kd [1]: 27 nM | EC50 [2, 4]: 0.279 µM | IC50 [3, 5]: 0.115 µM

C[C@H]1COCCN1c1cc(NC(=O)Cn2cc(-c3cc(Cl)c(O)c(C(N)=O)c3)c3c(=O)n(CC#Cc4cnn(C)c4)cnc32)c(Cl)cn1 [Compound I-82]
Kd [1]: 6 nM | EC50 [2, 4]: 0.133 µM | IC50 [3, 5]: 0.034 µM

CC1OCCN(c2cc(NC(=O)Cn3cc(-c4cc(Cl)c(O)c(C(N)=O)c4)c4c(=O)n(C)cnc43)c(Cl)cn2)C1C (stereo not drawn) [Compound I-83]
Kd [1]: 16 nM | EC50 [2, 4]: 0.148 µM | IC50 [3, 5]: 0.119 µM

Cc1nc2c(c(-c3cc(Cl)c(O)c(C(N)=O)c3)cn2CC(=O)Nc2cc(N3C[C@@H](C)O[C@@H](C)C3)ncc2Cl)c(=O)[nH]1 [Compound I-85]
Kd [1]: 11 nM | EC50 [2, 4]: 0.076 µM | IC50 [3, 5]: 0.064 µM

Cc1nc2c(s1)CN(c1cc(NC(=O)Cn3cc(-c4cc(Cl)c(O)c(C(N)=O)c4)c4c(=O)n(C)cnc43)c(Cl)cn1)C2 [Compound I-108]
Kd [1]: 30 nM | EC50 [2, 4]: 0.203 µM | IC50 [3, 5]: 0.408 µM

Cc1c(O)c(C(N)=O)cc(-c2cn(CC(=O)Nc3cc(N4CCOCC4)ncc3Cl)c3ncn(C)c(=O)c23)c1F [Compound I-118]
Kd [1]: 2000 nM | EC50 [2, 4]: > 10 µM | IC50 [3, 5]: 2.45 µM

Cc1c(O)c(C(N)=O)cc(-c2cn(CC(=O)Nc3cc(N4C[C@@H](C)O[C@@H](C)C4)ncc3Cl)c3ncn(C)c(=O)c23)c1F [Compound I-119]
Kd [1]: 4000 nM | EC50 [2, 4]: > 10 µM | IC50 [3, 5]: > 10 µM

COc1cc(-c2cn(CC(=O)Nc3cc(N4CCOC[C@@H]4C)ncc3Cl)c3nc(C)n(C)c(=O)c23)cc(C(N)=O)c1O [Compound I-122]
Kd [1]: 6 nM | EC50 [2, 4]: 0.119 µM | IC50 [3, 5]: 0.078 µM

COc1cc(-c2cn(CC(=O)Nc3cc(N4CCOCC4)ncc3Cl)c3nc(C)n(C)c(=O)c23)cc(C(N)=O)c1O [Compound I-123]
Kd [1]: 7 nM | EC50 [2, 4]: 0.095 µM | IC50 [3, 5]: 0.216 µM

Cn1c(NCC2CC2)nc2c(c(-c3cc(Cl)c(O)c(C(N)=O)c3)cn2CC(=O)Nc2cc(N3CCOCC3)ncc2Cl)c1=O [Compound I-124]
Kd [1]: 86 nM | EC50 [2, 4]: 0.371 µM | IC50 [3, 5]: 0.434 µM

Cn1cnc2c(c(-c3cc(Cl)c(O)c(C(N)=O)c3)cn2CC(=O)Nc2cc(N3C4CCC3CC4)ncc2Cl)c1=O [Compound I-125]
Kd [1]: 30 nM | EC50 [2, 4]: 3.76 µM | IC50 [3, 5]: 0.407 µM

Cn1cnc2c(c(-c3cc(Cl)c(O)c(C(N)=O)c3)cn2CC(=O)Nc2cc(N3CC4CCC3C4)ncc2Cl)c1=O (stereo not drawn) [Compound I-126]
Kd [1]: 39 nM | EC50 [2, 4]: 2.85 µM | IC50 [3, 5]: 0.268 µM

Cn1c(CCc2ccc(F)cc2)nc2c(c(-c3cc(Cl)c(O)c(C(N)=O)c3)cn2CC(=O)Nc2cc(N3CCOCC3)ncc2Cl)c1=O [Compound I-127]
Kd [1]: 201 nM | EC50 [2, 4]: 0.756 µM | IC50 [3, 5]: 0.276 µM

Cc1nc2c(c(-c3cc(Cl)c(O)c(C(N)=O)c3)cn2CC(=O)Nc2cc(N3CCN(C)C[C@@H]3C)ncc2Cl)c(=O)[nH]1 [Compound I-128]
Kd [1]: 12 nM | EC50 [2, 4]: 0.173 µM | IC50 [3, 5]: 0.074 µM

CN(C)c1cc(NC(=O)Cn2cc(-c3cc(Cl)c(O)c(C(N)=O)c3)c3c(=O)n(C)c(NCc4ccc(F)cc4)nc32)c(Cl)cn1 [Compound I-129]
Kd [1]: 44 nM | EC50 [2, 4]: 2.62 µM | IC50 [3, 5]: 0.866 µM

CN(C)c1cc(NC(=O)Cn2cc(-c3cc(Cl)c(O)c(C(N)=O)c3)c3c(=O)n(C)c(NCC4CC4)nc32)c(Cl)cn1 [Compound I-130]
Kd [1]: 80 nM | EC50 [2, 4]: 1.03 µM | IC50 [3, 5]: 0.775 µM

Cn1cnc2c(c(-c3cc(C(N)=O)c(O)cn3)cn2CC(=O)Nc2cc(N3CCOCC3)ncc2Cl)c1=O [Compound I-131, 2-(7-(2-((5-chloro-2-morpholinopyridin-4-yl)amino)-2-oxoethyl)-3-methyl-4-oxo-4,7-dihydro-3H-pyrrolo[2,3-d]pyrimidin-5-yl)-5-hydroxyisonicotinamide]
Kd [1]: 8000 nM | EC50 ([2]; SuDHL4-3xBCL6-TK-Luc cells, two days, high dose 10 uM, read-out: Luciferase-Assay EC50): > 10 µM | IC50 ([3]; Karpas422 cells, six days, ATPlite, read-out: Tumor Growth Inhibition in Karpas-422 (IC50)): > 10 µM

CN1CCOC2(CCN(c3cc(NC(=O)Cn4cc(-c5cc(Cl)c(O)c(C(N)=O)c5)c5c(=O)n(C)cnc54)c(Cl)cn3)C2)C1 (stereo not drawn) [Compound I-132]
Kd [1]: 10 nM | EC50 [2, 4]: 0.192 µM | IC50 [3, 5]: 0.067 µM

CN1CCC2(C1)CN(c1cc(NC(=O)Cn3cc(-c4cc(Cl)c(O)c(C(N)=O)c4)c4c(=O)n(C)cnc43)c(Cl)cn1)CCO2 (stereo not drawn) [Compound I-133]
Kd [1]: 30 nM | EC50 [2, 4]: 0.137 µM | IC50 [3, 5]: 0.199 µM

Cn1c(NCCC(F)(F)F)nc2c(c(-c3cc(Cl)c(O)c(C(N)=O)c3)cn2CC(=O)Nc2cc(N3CCOCC3)ncc2Cl)c1=O [Compound I-134]
Kd [1]: 97 nM | EC50 [2, 4]: 0.477 µM | IC50 [3, 5]: 0.57 µM

C[C@@H]1CCCN1c1cc(NC(=O)Cn2cc(-c3cc(Cl)c(O)c(C(N)=O)c3)c3c(=O)n(C)cnc32)c(Cl)cn1 [Compound I-135]
Kd [1]: 69 nM | EC50 [2, 4]: 3.01 µM | IC50 [3, 5]: 1.43 µM

C[C@H]1CCCN1c1cc(NC(=O)Cn2cc(-c3cc(Cl)c(O)c(C(N)=O)c3)c3c(=O)n(C)cnc32)c(Cl)cn1 [Compound I-136]
Kd [1]: 55 nM | EC50 [2, 4]: 0.578 µM | IC50 [3, 5]: 0.96 µM

C[C@H]1COCCN1c1cc(NC(=O)Cn2cc(-c3cc(F)c(O)c(C(N)=O)c3)c3c(=O)n(C)ccc32)c(Cl)cn1 [Compound I-137]
Kd [1]: 66 nM | EC50 [2, 4]: 1.34 µM | IC50 [3, 5]: 1.74 µM

C[C@H]1COCCN1c1cc(NC(=O)Cn2cc(-c3cc(Cl)c(O)c(C(N)=O)c3)c3c(=O)n(C)ccc32)c(Cl)cn1 [Compound I-138]
Kd [1]: 178 nM | EC50 [2, 4]: 1.74 µM | IC50 [3, 5]: 1.72 µM

Cc1cc(-c2cn(CC(=O)Nc3cc(N4CCOC[C@@H]4C)ncc3Cl)c3ccn(C)c(=O)c23)cc(C(N)=O)c1O [Compound I-139]
Kd [1]: 3270 nM | EC50 [2, 4]: 8.35 µM | IC50 [3, 5]: > 10 µM

Cn1ccc2c(c(-c3cc(F)c(O)c(C(N)=O)c3)cn2CC(=O)Nc2cc(N3CCOCC3)ncc2Cl)c1=O [Compound I-140]
Kd [1]: 317 nM | EC50 [2, 4]: 1.33 µM | IC50 [3, 5]: 1.28 µM

Cn1ccc2c(c(-c3cc(Cl)c(O)c(C(N)=O)c3)cn2CC(=O)Nc2cc(N3CCOCC3)ncc2Cl)c1=O [Compound I-141]
Kd [1]: 265 nM | EC50 [2, 4]: 1.83 µM | IC50 [3, 5]: 1.02 µM

Cc1cc(-c2cn(CC(=O)Nc3cc(N4CCOCC4)ncc3Cl)c3ccn(C)c(=O)c23)cc(C(N)=O)c1O [Compound I-142]
Kd [1]: 2200 nM | EC50 [2, 4]: 4.02 µM | IC50 [3, 5]: > 10 µM

C[C@H]1COCCN1c1cc(NC(=O)Cn2cc(-c3cc(Cl)c(O)c(C(N)=O)c3)c3c(=O)[nH]cnc32)c(Cl)cn1 [Compound I-145]
Kd [1]: 6.09 nM | EC50 [2, 4]: 0.303 µM | IC50 [3, 5]: 0.551 µM

From US11518764B2, “Substituted heteroaryls as inhibitors of the BCL6 BTB domain protein-protein interaction” (Ontario Institute for Cancer Research (OICR), priority 2018, dated 2022)
